The record followed here is US9227957B2, “Pesticidal pyrimidine compounds” (Dow AgroSciences, LLC, priority 2012, dated 2016).

Molecules are shown by their SMILES.

Common to all, as to settings: 120 h, read-out: percent control or mortality rate
Test [1] concerns cabbage looper (Trichoplusia ni (Huebner)). The experiment in a line: 128 well diet tray insecticidal bioassay, cabbage looper.
The test system of test [2] is corn earworm (Helicoverpa zea). The experiment in a line: 128 well diet tray insecticidal bioassay, corn earworm.
Test [3] relates to beet armyworm (Spodoptera exigua). The experiment in a line: 128 well diet tray insecticidal bioassay, beet armyworm.

Usually mortality stands for the share of the test organisms that died. Turning to `COc1c(Cl)csc1N(C)C(=O)Nc1nc(OCC(F)(F)F)cc(OCC(F)(F)F)n1` [Compound 35], the mortality at 50 µg/cm2 in test [1] was less than 80%.
`CC(=O)OCN(C(=O)N(C)c1ccc(C(F)(F)F)s1)c1nc(OCC(F)(F)F)c(F)c(OCC(F)(F)F)n1` [Compound 19]: the mortality at 50 µg/cm2 in test [2] and in test [3] was 80 to 100% each time.
As for `COCN(C(=O)N(C)c1ccc(C(F)(F)F)s1)c1nc(OCC(F)(F)F)cc(OCC(F)(F)F)n1` [Compound 7], the mortality at 50 µg/cm2 in test [2] and in test [3] was 80 to 100% in each case.
`O=C(Nc1nc(OCC(F)(F)F)cc(OCC(F)(F)F)n1)Nc1sc(Cl)c(Cl)c1Cl` [Compound 44]: the mortality at 50 µg/cm2 in test [3] and in test [1] was 80 to 100% each time.
For the molecule `CN(C(=O)Nc1nc(OCC(F)(F)F)cc(OCC(F)(F)F)n1)c1ccc(C(F)(F)F)s1` [Compound 2, 3-(4,6-bis(2,2,2-trifluoroethoxy)pyrimidin-2-yl)-1-methyl-1-(5-(trifluoromethyl)thiophen-2-yl)urea], the mortality at 50 µg/cm2 in test [2] and in test [3] was 80 to 100% each time.
On to `CN(C(=O)Nc1nc(OCC(F)(F)F)cc(OCC(F)(F)F)n1)c1cc(C#N)cs1` [Compound 38], for which the mortality at 50 µg/cm2 in test [1] is 80 to 100%.
Turning to `CC(=O)OCN(C(=O)Nc1ccc(C(F)(F)F)s1)c1nc(OCC(F)(F)F)cc(OCC(F)(F)F)n1` [Compound 5], the mortality at 50 µg/cm2 in test [2] and in test [3] was 80 to 100% in each case.
With `COCN(C(=O)Nc1ccc(C(F)(F)F)s1)c1nc(OCC(F)(F)F)c(F)c(OCC(F)(F)F)n1` [Compound 15], the mortality at 50 µg/cm2 in test [3] lay in the range of 80 to 100%.
Turning to `O=C(Nc1nc(OCC(F)(F)F)cc(OCC(F)(F)F)n1)Nc1sccc1Cl` [Compound 32], the mortality at 50 µg/cm2 in test [3] fell in the range of 80 to 100%.
Take `COCN(C(=O)N(COCc1ccccc1)c1nc(OCC(F)(F)F)cc(OCC(F)(F)F)n1)c1ccc(C(F)(F)F)s1` [Compound 10, 3-(benzyloxymethyl)-3-(4,6-bis(2,2,2-trifluoroethoxy)pyrimidin-2-yl)-1-(methoxymethyl)-1-(5-(trifluoromethyl)thiophen-2-yl)urea]: the mortality at 50 µg/cm2 in test [2] and in test [3] was 80 to 100% in each case.
Take `COCN(C(=O)Nc1ccc(C(F)(F)F)s1)c1nc(OCC(F)(F)F)cc(OCC(F)(F)F)n1` [Compound 4, 3-(methoxymethyl)-3-(4,6-bis(2,2,2-trifluoroethoxy)pyrimidin-2-yl)-1-(5-(trifluoromethyl)thiophen-2-yl)urea]: the mortality at 50 µg/cm2 in test [2] and in test [3] was 80 to 100% in each case.
Turning to `CC(=O)OCN(C(=O)N(C)c1ccc(C(F)(F)F)s1)c1nc(OCC(F)(F)F)cc(OCC(F)(F)F)n1` [Compound 8], the mortality at 50 µg/cm2 in test [2] and in test [3] was 80 to 100% in each case.
Turning to `CN(C(=O)Nc1nc(OCC(F)(F)F)c(F)c(OCC(F)(F)F)n1)c1ccc(C(F)(F)F)s1` [Compound 13], the mortality at 50 µg/cm2 in test [2] and in test [3] was 80 to 100% each time.
As to `CN(C(=O)Nc1nc(OCC(F)(F)F)cc(OCC(F)(F)F)n1)c1sccc1Cl` [Compound 28], the mortality at 50 µg/cm2 in test [3] was less than 80%.
For the molecule `COc1ccsc1N(C)C(=O)Nc1nc(OCC(F)(F)F)cc(OCC(F)(F)F)n1` [Compound 36], the mortality at 50 µg/cm2 in test [1] is less than 80%.
For `O=C(Nc1nc(OCC(F)(F)F)cc(OCC(F)(F)F)n1)Nc1ccc(C(F)(F)F)s1` [Compound 1, 3-(4,6-bis(2,2,2-trifluoroethoxy)pyrimidin-2-yl)-1-(5-(trifluoromethyl)thiophen-2-yl)urea], the mortality at 50 µg/cm2 in test [2] is 80 to 100%; in test [3] it was less than 80%.
Regarding `Cc1ccc(N(C)C(=O)Nc2nc(OCC(F)(F)F)cc(OCC(F)(F)F)n2)s1` [Compound 39], the mortality at 50 µg/cm2 in test [1] is 80 to 100%.
For `O=C(Nc1nc(OCC(F)(F)F)c(F)c(OCC(F)(F)F)n1)Nc1ccc(C(F)(F)F)s1` [Compound 12], the mortality at 50 µg/cm2 in test [2] and in test [3] was 80 to 100% each time.
As for `COc1c(Cl)csc1NC(=O)Nc1nc(OCC(F)(F)F)cc(OCC(F)(F)F)n1` [Compound 25], the mortality at 50 µg/cm2 in test [3] and in test [1] was 80 to 100% in each case.
With `Cc1ccsc1NC(=O)Nc1nc(OCC(F)(F)F)cc(OCC(F)(F)F)n1` [Compound 37], the mortality at 50 µg/cm2 is 80 to 100% in test [3] and less than 80% in test [1].
In the case of `CN(C(=O)N(COCc1ccccc1)c1nc(OCC(F)(F)F)cc(OCC(F)(F)F)n1)c1ccc(C(F)(F)F)s1` [Compound 9], the mortality at 50 µg/cm2 in test [2] and in test [3] was 80 to 100% throughout.
Consider `Cc1csc(N(C)C(=O)Nc2nc(OCC(F)(F)F)cc(OCC(F)(F)F)n2)c1` [Compound 34], for which the mortality at 50 µg/cm2 in test [1] was in the range of 80 to 100%.
Turning to `O=C(Nc1nc(OCC(F)(F)F)cc(OCC(F)(F)F)n1)Nc1sccc1Br` [Compound 45], in test [3], the mortality at 50 µg/cm2 was less than 80%.
For the molecule `Cc1ccsc1N(C)C(=O)Nc1nc(OCC(F)(F)F)cc(OCC(F)(F)F)n1` [Compound 31], the mortality at 50 µg/cm2 in test [1] is less than 80%.
For the molecule `CN(C(=O)Nc1nc(OCC(F)(F)F)cc(OCC(F)(F)F)n1)c1cc(-c2ccc(Cl)cc2)cs1` [Compound 26], the mortality at 50 µg/cm2 in test [3] and in test [1] was 80 to 100% throughout.
